Earlier results on one compound are cited in US20130177630A1 (priority 2012, published 2013).

For the data set, the system named is fibrolamellar hepatocellular carcinoma. Conditions: patient with fibrolamellar hepatocellular carcinoma.

With `O=C(O)C(=O)CBr` [3-bromopyruvate], the side effects entry is recorded as “severe side effects” and the “treatment outcome (survival)” value is recorded as “life-extension characteristics”.
